This note sets out measurements from patent publication US20240317826A1, “COMPOSITIONS AND METHODS FOR TREATING AND/OR I[…] AGENT FOR TREATING HIV-1 INFECTIONS” (priority 2021, published 2024).

Entries after “also recorded” stand apart in the source; their conditions may differ.

The test system of this assay is HIV-1 virions. Nature of the assay: Infectivity in CEM-GFP cells of virions produced in the presence of stapled peptides. The assay is classed as cell-based. Particulars: virions from 293T cells, 5 ng p24, infection of CEM-GFP cells in the absence of stapled peptides; GFP and p24. How it is done: FIG. 11A and FIG. 11B show infectivity of virions in CEM GFP cells produced in 293T cells that were treated with various stapled peptide (at 5 μM concentration) or DMSO. Equal amounts of virions treated with stapled peptides were used to infect CEM-GFP cells and the infected cells were imaged on days 1, 3, 6, 9 and 12 (FIG. 11A) and subjected to p24 ALphaLisa (FIG. 11B). FIG. 11C and FIG. 11D show Infectivity of the virions produced in the presence of increasing concentrations of stapled peptide during production in 293T cells. The 293T cells transfected with pNL4-3 were treated with increasing concentrations of stapled peptides and equal amount of virions from these cells were used to infect CEM-GFP cells. The infected cells were imaged on day 6 (FIG. 11C) and subjected to p24 ALphaLisa (FIG. 11D).
To determine the infectivity of virions produced in the presence of DMSO (DMSO-V), SP-38 (SP38-V), SP-80 (SP80-V) and SP83-D225G (SP83-V), we used equal amounts (5 ng p24) of virions to infect CEM-GFP cells in the absence of stapled peptides (FIGS. 11a and c). […] Replication of the virus was monitored by GFP expression in […] and also by assaying for the production of p24 in the culture supernatants (FIGS. 11a-d).

Take “lys-Leu-Met-Thr-Pro-Glu-Met-Phe-S5-Glu-Ile-Leu-S5-Cys-Asp-Leu-Asn [SP38]”: the “infectivity of virions produced in the presence of peptide” value was “defective for infection; also recorded: produced non-infection virions”.
